In publication PMC6199744, “Development of Chemical Proteomics for the Folateome and Analysis of the Kinetoplastid Folateome” (ACS Infectious Diseases, 2018):

Test system: L. major lysate proteins
Assay: Multitargeted bead mixture chemoproteomics, single concentration competition, proteome-wide
Assay type: binding
Details: for fold change / fold change relative to vehicle control: vehicle control = 1; for fold change relative to vehicle control: competition with free ligand

Q: Which results are given for CCCCCCOc1ccc(Cc2cnc(N)nc2N)cc1 [compound 1]?
A: fold change (protein LMJF.31.3130 METHYLCROTONOYL-COA CARBOXYLASE BIOTINYLATED SUBUNITPROTEIN-LIKE PROTEIN): 0.91; fold change (protein LMJF.32.0010 HYPOTHETICAL PROTEIN, CONSERVED): 0.92; fold change vs vehicle control (protein LMJF.32.0400 ATP-DEPENDENT RNA HELICASE, PUTATIVE): 1; fold change vs vehicle control (protein LMJF.32.0520 PROFILIN, PUTATIVE): 0.98; fold change (protein LMJF.32.1000 CHAPERONIN CONTAINING T-COMPLEX PROTEIN, PUTATIVE): 0.99; fold change vs vehicle control (protein LMJF.32.3010 HY[…], CONSERVED,LEUCINE-RICH REPEAT PROTEIN, PUTATIVE): 1.06; fold change vs vehicle control (protein LMJF.32.3870 MYOSIN XXI): 0.77; fold change vs vehicle control (protein LMJF.33.0890, HYPOTHETICAL PROTEIN, CONSERVED): 1.1; fold change vs vehicle control (protein LMJF.33.1070 HYPOTHETICAL PROTEIN, UNKNOWN FUNCTION): 0.91; fold change (protein LMJF.33.1330 CYSTEINE CONJUGATE BETA-LYASE, AMINOTRANSFERASE- LIKE PROTEIN): 1.04; fold change (protein LMJF.33.1610 PEPTIDASE M20/M25/M40, PUTATIVE): 0.82; fold change relative to vehicle control (protein LMJF.33.1630 CYCLOPHILIN 4, PUTATIVE): 1.08; fold change vs vehicle control (protein LMJF.33.2300 UDP-GLC 4'-EPIMERASE, PUTATIVE): 1.07; fold change vs vehicle control (protein LMJF.33.2390 HEAT SHOCK PROTEIN, PUTATIVE): 1.41; fold change (protein LMJF.33.2410 HYPOTHETICAL PROTEIN, CONSERVED): 0.95; fold change (protein LMJF.33.3150 40S RIBOSOMAL PROTEIN S13, PUTATIVE): 1.11; fold change (protein LMJF.34.3500 RUVB-LIKE 1 DNA HELICASE, PUTATIVE): 0.93; fold change (protein LMJF.34.3670 VACUOLAR ATP SYNTHASE CATALYTIC SUBUNIT A, PUTATIVE): 1.02; fold change (protein LMJF.34.3740 SERINE PALMITOYLTRANSFERASE-LIKE PROTEIN): 0.91; fold change (protein LMJF.34.4120 HYPOTHETICAL PROTEIN, CONSERVED): 0.82; fold change vs vehicle control (protein LMJF.34.4370 20S PROTEASOME BETA 7 SUBUNIT, (PUTATIVE)): 0.95; fold change (protein LMJF.35.0370 ATP-DEPENDENT DEAD-BOX RNA HELICASE, PUTATIVE): 1.01; fold change vs vehicle control (protein LMJF.35.1380, MITOCHONDRIAL PROCESSING PEPTIDASE, BETA SUBUNIT, PUTATIVE): 0.97; fold change vs vehicle control (protein LMJF.35.1410 THREONYL-TRNA SYNTHETASE, PUTATIVE): 0.94; fold change vs vehicle control (protein LMJF.35.1720 CYCLOPHILIN 14, PUTATIVE): 1.02; fold change (protein LMJF.35.2500 HYPOTHETICAL PROTEIN, CONSERVED): 0.72; fold change (protein LMJF.35.2730 ACYL-COA DEHYDROGENASE, PUTATIVE): 0.86; fold change relative to vehicle control (protein LMJF.35.3010 […],TRYPANOTHIONE-DEPENDENT […]): 1.13; fold change vs vehicle control (protein LMJF.35.3100 ATP-DEPENDENT RNA HELICASE, PUTATIVE): 0.99; fold change vs vehicle control (protein LMJF.35.3340 6-phosphogluconate dehydrogenase): 1.08; fold change (protein LMJF.35.3700 GIM5A PROTEIN, PUTATIVE,GLYCOSOMAL MEMBRANE PROTEIN): 0.94; fold change vs vehicle control (protein LMJF.35.3840, […] 2 SUBUNIT, PUTATIVE): 1.01; fold change vs vehicle control (protein LMJF.35.3860 T-COMPLEX PROTEIN 1, ETA SUBUNIT, PUTATIVE): 0.99; fold change (protein LMJF.35.4550 HYPOTHETICAL PROTEIN, CONSERVED): 0.97; fold change (protein LMJF.35.4770 CYCLOPHILIN 40): 1.17; fold change (protein LMJF.35.4850 PROTEASOME ALPHA 1 SUBUNIT, PUTATIVE): 0.91; fold change (protein LMJF.35.4860 HYPOTHETICAL PROTEIN, CONSERVED): 0.85; fold change relative to vehicle control (protein LMJF.35.5330 ISOPENTENYL-DIPHOSPHATE DELTA-ISOMERASE, PUTATIVE,ISOMERASE, PUTATIVE): 1.62; fold change vs vehicle control (protein LMJF.36.0180 […] 2): 1.03; fold change vs vehicle control (protein LMJF.36.0620 HY[…], CONSERVED): 1.34; fold change vs vehicle control (protein LMJF.36.0990 40S RIBOSOMAL PROTEIN S10, PUTATIVE): 1.1; fold change vs vehicle control (protein LMJF.36.2020 CHAPERONIN HSP60, MITOCHONDRIAL PRECURSOR): 0.95; fold change vs vehicle control (protein LMJF.36.3460 HYPOTHETICAL PROTEIN, CONSERVED): 0.82; fold change (protein LMJF.36.3760 60S RIBOSOMAL PROTEIN L10A, PUTATIVE): 1.26; fold change vs vehicle control (protein LMJF.36.3840 GLYCYL TRNA SYNTHETASE, PUTATIVE): 0.85; fold change vs vehicle control (protein LMJF.36.4170 OXIDOREDUCTASE, PUTATIVE): 0.84; fold change vs vehicle control (protein LMJF.36.5010 40S RIBOSOMAL PROTEIN SA, PUTATIVE): 1.09; fold change (protein LMJF.36.5390 PHOSPHORIBOSYLPYROPHOSPHATE SYNTHETASE, PUTATIVE): 0.86; fold change vs vehicle control (protein LMJF.36.5620 ISOLEUCYL-TRNA SYNTHETASE, PUTATIVE): 0.97; fold change vs vehicle control (protein LMJF.36.6430 PROTEIN TRANSPORT PROTEIN SEC23-LIKE PROTEIN): 0.85; fold change (protein LMJF.36.6760 HY[…], CONSERVED): 1.01; fold change vs vehicle control (protein LMJF.36.6910 T-COMPLEX PROTEIN 1, THETA SUBUNIT, PUTATIVE): 1; fold change vs vehicle control (protein LMJF.36.6940 disulfide isomerase PDI): 1.14; fold change vs vehicle control (protein LMJF.[…] […] EXOPOLYPHOSPHATASE, PUTATIVE): 1.19
